Data as given in patent US11833251B2, “Pharmaceutical methods and compositions” (THE UNIVERSITY OF SUSSEX, priority 2018, dated 2023).
Converted amounts (≈) assume the structure as drawn.

Assay: Saturation solubility test of propranolol in various solvents at 37° C.
Type: physicochemical

Mean concentration (mg/ml) ± SD (propranolol in Kolliphor EL, 37° C., n = 3): 1.32 ± 0.00 mg/mL
Mean concentration (mg/ml) ± SD (propranolol in Tween 20, 37° C., n = 3): 1.86 ± 0.00 mg/mL
Mean concentration (mg/ml) ± SD (propranolol in Tween 80, 37° C., n = 3): 1.89 ± 0.01 mg/mL
solubility thermodynamic (propranolol in Water, 37° C., n = 3, read-out: Mean concentration (mg/ml) ± SD): 29.03 ± 0.12 mg/mL (≈ 112 mM)
Inference (solubility of propranolol in Kolliphor EL): Slightly soluble
Inference (solubility of propranolol in Tween 20): Slightly soluble
Inference (solubility of propranolol in Tween 80): Slightly soluble
Inference (solubility of propranolol in Water): Sparingly soluble
Compound: CC(C)NCC(O)COc1cccc2ccccc12 (centres unmarked) [Propranolol, propranolol]
